Where a name gives a salt, the structure may show the parent alone. Read-outs that look alike come from different tables or passages of the source.
How the values were obtained:
human CYP2D6 [1] = biological target: T1, human CYP2D6 (Homo sapiens, UniProt P10635); assay: biochemical
CYP3A4 [2] = biological target: T2, CYP3A4 (Homo sapiens, UniProt P08684)
[3] = biological target: Photinus pyralis (firefly) luciferase (Photinus pyralis, UniProt P08659); assay: biochemical; assay type: biochemical
human CYP2C9 [4] = biological target: T3, human CYP2C9 (Homo sapiens, UniProt P11712); conditions: for CYP2C9 Efficacy (in parenthesis): human
human CYP2C19 [5] = biological target: T4, human CYP2C19 (Homo sapiens, UniProt P33261); assay: biochemical
human CYP1A2 [6] = biological target: T5, human CYP1A2 (Homo sapiens, UniProt P05177); assay: biochemical
T5 sequence (P05177 1-516): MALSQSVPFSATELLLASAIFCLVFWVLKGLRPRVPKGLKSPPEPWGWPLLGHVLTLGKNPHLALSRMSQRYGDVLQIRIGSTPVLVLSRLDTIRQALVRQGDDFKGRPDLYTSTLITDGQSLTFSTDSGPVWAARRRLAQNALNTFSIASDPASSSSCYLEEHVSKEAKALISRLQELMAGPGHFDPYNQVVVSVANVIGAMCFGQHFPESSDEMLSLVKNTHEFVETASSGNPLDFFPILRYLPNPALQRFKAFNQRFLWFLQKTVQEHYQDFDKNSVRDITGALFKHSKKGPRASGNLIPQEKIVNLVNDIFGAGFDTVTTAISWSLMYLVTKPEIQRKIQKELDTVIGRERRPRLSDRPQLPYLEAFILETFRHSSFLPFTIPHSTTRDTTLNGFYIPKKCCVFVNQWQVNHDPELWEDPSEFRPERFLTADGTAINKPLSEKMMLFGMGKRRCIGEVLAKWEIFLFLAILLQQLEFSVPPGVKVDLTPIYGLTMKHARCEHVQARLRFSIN

human CYP2C19 [7] = biological target: T4, human CYP2C19; conditions: for CYP2C19 Efficacy (in parenthesis): human
human CYP2D6 [8] = biological target: T1, human CYP2D6; conditions: human
human CYP1A2 [9] = biological target: T5, human CYP1A2; conditions: human
human CYP2C9 [10] = biological target: T3, human CYP2C9; assay: biochemical
CYP3A4 [11] = biological target: T2, CYP3A4; assay: biochemical; conditions: IC50 CYP3A4 assay
[12] = CYP2D6 IC50 (half-maximal inhibitory concentration)
[13] = CYP2C19 IC50 (half-maximal inhibitory concentration)
[14] = CYP1A2 IC50 (half-maximal inhibitory concentration)
[15] = CYP2C9 IC50 (half-maximal inhibitory concentration)

Chain of Photinus pyralis (firefly) luciferase (P08659 whole entry): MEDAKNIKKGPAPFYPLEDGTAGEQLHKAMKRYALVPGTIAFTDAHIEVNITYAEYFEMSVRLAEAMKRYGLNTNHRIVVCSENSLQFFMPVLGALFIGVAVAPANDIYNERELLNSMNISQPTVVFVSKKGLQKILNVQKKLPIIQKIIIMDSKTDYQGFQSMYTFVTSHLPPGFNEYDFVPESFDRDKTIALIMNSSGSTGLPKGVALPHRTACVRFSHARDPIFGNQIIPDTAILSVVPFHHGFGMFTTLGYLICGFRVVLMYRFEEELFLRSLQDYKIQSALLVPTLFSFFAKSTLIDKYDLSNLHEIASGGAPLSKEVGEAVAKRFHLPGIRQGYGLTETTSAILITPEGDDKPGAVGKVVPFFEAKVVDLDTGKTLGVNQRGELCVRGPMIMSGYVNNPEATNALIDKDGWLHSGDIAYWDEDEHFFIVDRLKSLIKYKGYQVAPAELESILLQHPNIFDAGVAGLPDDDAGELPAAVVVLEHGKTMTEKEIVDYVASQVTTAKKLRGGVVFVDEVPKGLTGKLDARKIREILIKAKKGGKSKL
T4 sequence (P33261 whole entry): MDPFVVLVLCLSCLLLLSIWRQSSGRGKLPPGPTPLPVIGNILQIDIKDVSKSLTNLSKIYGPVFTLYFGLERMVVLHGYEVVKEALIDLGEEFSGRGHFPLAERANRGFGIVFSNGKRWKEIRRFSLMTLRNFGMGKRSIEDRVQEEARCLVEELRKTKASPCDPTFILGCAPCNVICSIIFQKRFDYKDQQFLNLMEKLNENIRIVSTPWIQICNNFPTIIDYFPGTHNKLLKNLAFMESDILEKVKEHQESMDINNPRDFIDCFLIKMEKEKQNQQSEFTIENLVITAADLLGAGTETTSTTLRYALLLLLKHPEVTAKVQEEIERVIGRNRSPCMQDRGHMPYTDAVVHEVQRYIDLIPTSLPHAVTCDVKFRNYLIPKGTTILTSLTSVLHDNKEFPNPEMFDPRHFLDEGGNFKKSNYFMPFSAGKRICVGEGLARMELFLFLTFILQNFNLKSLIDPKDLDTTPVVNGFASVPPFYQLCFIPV
T1 sequence (P10635 whole entry): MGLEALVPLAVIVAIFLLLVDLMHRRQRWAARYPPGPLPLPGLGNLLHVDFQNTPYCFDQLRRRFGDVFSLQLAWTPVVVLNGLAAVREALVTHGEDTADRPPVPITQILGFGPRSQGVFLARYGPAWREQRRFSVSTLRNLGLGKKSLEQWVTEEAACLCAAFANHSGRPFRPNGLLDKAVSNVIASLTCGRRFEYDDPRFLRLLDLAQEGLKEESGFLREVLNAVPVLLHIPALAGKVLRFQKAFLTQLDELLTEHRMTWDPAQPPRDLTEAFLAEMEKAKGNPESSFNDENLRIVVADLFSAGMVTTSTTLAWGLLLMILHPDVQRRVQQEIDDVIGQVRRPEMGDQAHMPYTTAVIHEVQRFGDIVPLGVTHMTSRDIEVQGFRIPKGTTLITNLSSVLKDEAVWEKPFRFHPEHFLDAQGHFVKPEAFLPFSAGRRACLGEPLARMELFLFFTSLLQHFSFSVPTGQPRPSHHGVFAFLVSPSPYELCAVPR
T2 sequence (P08684 whole entry): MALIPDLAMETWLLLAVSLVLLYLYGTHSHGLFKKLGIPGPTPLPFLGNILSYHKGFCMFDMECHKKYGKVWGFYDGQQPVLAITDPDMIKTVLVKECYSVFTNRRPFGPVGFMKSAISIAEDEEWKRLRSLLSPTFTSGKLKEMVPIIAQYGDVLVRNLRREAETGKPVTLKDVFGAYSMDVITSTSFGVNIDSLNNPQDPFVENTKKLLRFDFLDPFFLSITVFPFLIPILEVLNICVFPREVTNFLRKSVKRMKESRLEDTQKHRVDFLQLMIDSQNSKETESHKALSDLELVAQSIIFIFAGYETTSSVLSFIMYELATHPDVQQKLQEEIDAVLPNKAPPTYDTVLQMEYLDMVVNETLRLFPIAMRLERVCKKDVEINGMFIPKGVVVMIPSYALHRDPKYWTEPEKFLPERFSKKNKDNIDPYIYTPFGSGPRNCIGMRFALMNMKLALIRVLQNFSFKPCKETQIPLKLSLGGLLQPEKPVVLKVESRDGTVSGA
T3 sequence (P11712 whole entry): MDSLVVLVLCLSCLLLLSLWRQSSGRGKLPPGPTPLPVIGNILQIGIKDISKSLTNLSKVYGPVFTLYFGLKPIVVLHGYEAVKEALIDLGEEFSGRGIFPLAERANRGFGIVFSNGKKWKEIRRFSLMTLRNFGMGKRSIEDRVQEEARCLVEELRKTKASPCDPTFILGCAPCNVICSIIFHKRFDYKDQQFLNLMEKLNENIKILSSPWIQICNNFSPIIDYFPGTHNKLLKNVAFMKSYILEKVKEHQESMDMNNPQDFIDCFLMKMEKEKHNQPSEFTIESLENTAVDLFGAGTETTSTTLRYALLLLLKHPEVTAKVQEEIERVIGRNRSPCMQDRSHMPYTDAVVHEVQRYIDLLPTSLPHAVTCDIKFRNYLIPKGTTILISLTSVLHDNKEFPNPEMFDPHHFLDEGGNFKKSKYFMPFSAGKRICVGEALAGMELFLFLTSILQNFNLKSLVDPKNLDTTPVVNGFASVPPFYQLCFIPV

SMILES | IC50 (human CYP2D6 [1]; CYP2D6 IC50) [µM] | CYP3A4 IC50 (CYP3A4 [2]) | CYP2C9 IC50 (human CYP2C9 [4]) | IC50 (human CYP1A2 [6]; CYP1A2 IC50) [µM] | Luciferase IC50 [3] | IC50 (human CYP2D6 [1]; [12]) [µM] | CYP3A4 IC50 (half-maximal inhibitory concentration) (CYP3A4 [2]) | Luciferase IC50 (half-maximal inhibitory concentration) [3] | CYP2C9 IC50 (half-maximal inhibitory concentration) (human CYP2C9 [4]) | IC50 (human CYP2C19 [5]; [13]) [µM] | IC50 (human CYP1A2 [6]; [14]) [µM] | other results
c1ccc2c(c1)-c1cccc3c1c-2cc1ccccc13 [Benzo(b)fluoranthene] | 30 | Inactive | Inactive | 0.69 |  |  |  |  |  |  |  | IC50 [3]: 5.37 µM; IC50 (human CYP2C19 [5]; CYP2C19 IC50): 10.5 µM
CCc1ccc(C2CCNCC2)cc1 [Enefexine] |  | Inactive | Inactive |  | Inactive |  |  |  |  |  |  | IC50 (human CYP2D6 [1]): 0.42 µM; CYP2C19 IC50 (human CYP2C19 [7]): Inactive; IC50 (human CYP1A2 [6]): 23.2 µM
CN1CC2c3ccccc3Oc3ccc(Cl)cc3C2C1 (stereo not drawn) [Asenapine] | 0.09 | Inactive | Inactive | 7.55 | Inactive |  |  |  |  |  |  | CYP2C19 IC50 (human CYP2C19 [7]): Inactive
COc1ccc(CN(CCN(C)C)c2ccccn2)cc1 [Pyrilamine maleate] |  |  |  |  |  | 0.18 | Inactive | Inactive | Inactive | 15.8 | 62.7 | 
c1ccc2c(c1)c1cccc3ccc4cccc2c4c31 [Benzo(e)pyrene] | 55.4 | Inactive | Inactive | 0.1 | Inactive |  |  |  |  |  |  | CYP2C19 IC50 (human CYP2C19 [7]): Inactive
Cc1ccc(Cl)c(OCC(O)CNC(C)(C)C)c1 (stereo not drawn) [Bupranolol] |  |  |  |  |  | 0.98 | Inactive | Inactive | Inactive |  | 15.5 | CYP2C19 IC50 (half-maximal inhibitory concentration) (human CYP2C19 [7]): Inactive
CCCCc1cc2ccccc2c(OCCN(C)C)n1 [Dimethisoquin hydrochloride] |  |  |  |  |  |  | Inactive | Inactive | Inactive |  |  | IC50 (human CYP2D6 [1]): 4.36 µM; IC50 (human CYP2C19 [5]): 39.2 ± 6.35 µM; IC50 (human CYP1A2 [6]): 0.47 ± 0.03 µM
O=[N+]([O-])c1ccc2ccc3cccc4ccc1c2c34 [1-Nitropyrene] |  |  |  |  |  | 33 | Inactive | Inactive | Inactive | 14 | 0.27 | CYP2C19 Efficacy (in parenthesis) (human CYP2C19 [7]): 14.04 ± 11.88 (-69 ± 19) %; CYP2D6 Efficacy (in parenthesis) (human CYP2D6 [8]): 33 ± 2.23 (-91 ± 22) %; CYP1A2 Efficacy (in parenthesis) (human CYP1A2 [9]): 0.27 ± 0.05 (-96 ± 5) %
CN1[C@@H]2CC[C@H]1C[C@@H](OC(=O)c1cc(Cl)cc(Cl)c1)C2 [MDL 72222] |  |  |  |  |  | 0.05 | Inactive | Inactive | Inactive |  | 14.6 | CYP2C19 IC50 (half-maximal inhibitory concentration) (human CYP2C19 [7]): Inactive
CCN(CC)CCCN(c1ccccc1)C1Cc2ccccc2C1 [Aprindine hydrochloride] | 0.44 | Inactive | Inactive | 22.2 | Inactive |  |  |  |  |  |  | IC50 (human CYP2C19 [5]; CYP2C19 IC50): 41.3 µM
CCN(CC)CCNc1ccc(CO)c2sc3ccccc3c(=O)c12 [Hycanthone] | 3.77 | Inactive | Inactive | 0.58 | Inactive |  |  |  |  |  |  | CYP2C19 IC50 (human CYP2C19 [7]): Inactive
CCN(CC)CCCC(C)Nc1c2ccc(Cl)cc2nc2ccc(OC)cc12 (stereo not drawn) [Quinacrine] | 0.18 | Inactive | Inactive | 2.2 | Inactive |  |  |  |  |  |  | CYP2C19 IC50 (human CYP2C19 [7]): Inactive
CCCC(Cn1cncn1)c1ccc(Cl)cc1Cl (stereo not drawn) [Penconazole] |  |  |  |  |  | 43.5 | Inactive | Inactive |  | 0.14 | 23.6 | IC50 (human CYP2C9 [10]; [15]): 5.66 µM; CYP2C19 Efficacy (in parenthesis) (human CYP2C19 [7]): 0.14 ± 0.02 (-137 ± 5) %; CYP2C9 Efficacy (in parenthesis) (human CYP2C9 [4]): 5.66 ± 0.65 (-101 ± 4) %; CYP2D6 Efficacy (in parenthesis) (human CYP2D6 [8]): 43.51 ± 17.21 (-88 ± 16) %; CYP1A2 Efficacy (in parenthesis) (human CYP1A2 [9]): 23.57 ± 4.24 (-101 ± 7) %
CC[C@H]1OC(=O)[C@H](C)[C@@H](O[C@H]2C[C@@](C)(OC)[C@@H](O)[C@H](C)O2)[C@H](C)[C@@H](O[C@@H]2O[C@H](C)C[C@H](N(C)C)[C@H]2O)[C@](C)(O)C[C@@H](C)C(=O)[C@H](C)[C@@H](O)[C@]1(C)O [erythromycin, reference compound] |  |  |  |  |  |  |  |  |  |  |  | IC50 (CYP3A4 [11]): 0.3 µM
COc1ccc(CN(CCN(C)C)c2ncccn2)cc1 [Thonzylamine hydrochloride] |  |  |  |  |  | 0.7 | Inactive | Inactive | Inactive | 15.7 | 18.5 | 
Fc1ccc(Oc2ccnc3cc(Cl)cc(Cl)c23)cc1 [Quinoxyfen] |  |  |  |  |  | 37 | Inactive |  |  | 13.3 | 0.53 | IC50 (human CYP2C9 [10]; [15]): 23.2 µM; CYP2C19 Efficacy (in parenthesis) (human CYP2C19 [7]): 13.35 ± 5.76 (-134 ± 20) %; IC50 [3]: 59.2 µM; CYP2C9 Efficacy (in parenthesis) (human CYP2C9 [4]): 23.18 ± 7.46 (-103 ± 2) %; CYP2D6 Efficacy (in parenthesis) (human CYP2D6 [8]): 37.02 ± 2.51 (-71 ± 14) %; CYP1A2 Efficacy (in parenthesis) (human CYP1A2 [9]): 0.53 ± 0.32 (-98 ± 2) %
CN(C)CCCN1c2ccccc2Sc2ccc(C(F)(F)F)cc21 [Triflupromazine hydrochloride] |  |  |  |  |  | 0.55 | Inactive | Inactive | Inactive | 7.62 | 3.52 | 
CCn1ccnc1CC1COc2ccccc2O1 (stereo not drawn) [Imiloxan] |  |  |  |  |  | 0.69 | Inactive | Inactive | Inactive | 4.42 | 25.3 | 
O=S(=O)(c1ccc(Cl)cc1)c1cc(Cl)c(Cl)cc1Cl [Tetradifon] |  |  |  |  |  | 49.4 | Inactive | Inactive |  | 0.27 | 31.9 | IC50 (human CYP2C9 [10]; [15]): 28.3 µM; CYP2C19 Efficacy (in parenthesis) (human CYP2C19 [7]): 0.27 ± 0.02 (-131 ± 10) %; CYP2C9 Efficacy (in parenthesis) (human CYP2C9 [4]): 28.26 ± 0 (-59 ± 2) %; CYP2D6 Efficacy (in parenthesis) (human CYP2D6 [8]): 49.42 ± 19.58 (-34 ± 2) %; CYP1A2 Efficacy (in parenthesis) (human CYP1A2 [9]): 31.85 ± 3.66 (-38 ± 3) %
CS(=O)(=O)c1ccc(-c2cn3ccccc3n2)cc1 [Zolimidine] | 24.2 | Inactive |  | 0.7 |  |  |  |  |  |  |  | IC50 (human CYP2C9 [10]; CYP2C9 IC50): 24.1 µM; IC50 [3]: 6.95 µM; IC50 (human CYP2C19 [5]; CYP2C19 IC50): 25.7 µM
CCCCC(CC)CNCC(CC)CCCC (stereo not drawn) [2,2'-Diethylhexylamine] | 0.31 | Inactive | Inactive | 47.4 | Inactive |  |  |  |  |  |  | IC50 (human CYP2C19 [5]; CYP2C19 IC50): 51.3 µM
CN(C)CCN(Cc1ccccc1)c1ccccn1 [Tripelennamine citrate] |  |  |  |  |  | 0.2 | Inactive | Inactive | Inactive | 35.7 | 26.5 | 
OC(c1ccc(Cl)cc1)(c1ccc(Cl)cc1)C(Cl)(Cl)Cl [Dicofol] |  |  |  |  |  | 44.8 | Inactive | Inactive |  | 0.29 | 8.5 | IC50 (human CYP2C9 [10]; [15]): 4.89 µM; CYP2C19 Efficacy (in parenthesis) (human CYP2C19 [7]): 0.29 ± 0.44 (-153 ± 1) %; CYP2C9 Efficacy (in parenthesis) (human CYP2C9 [4]): 4.89 ± 4.11 (-104 ± 9) %; CYP2D6 Efficacy (in parenthesis) (human CYP2D6 [8]): 44.8 ± 22.68 (-69 ± 14) %; CYP1A2 Efficacy (in parenthesis) (human CYP1A2 [9]): 8.5 ± 4.94 (-106 ± 9) %
CN(Cc1cc(Br)cc(Br)c1N)C1CCCCC1 [Bromhexine hydrochloride] |  | Inactive |  |  | Inactive |  |  |  |  |  |  | IC50 (human CYP2D6 [1]): 0.01 ± 0.01 µM; IC50 (human CYP2C9 [10]): 19.5 ± 6.96 µM; IC50 (human CYP2C19 [5]): 4.36 µM; IC50 (human CYP1A2 [6]): 28.1 ± 9.38 µM
Clc1ccc(C(c2ccc(Cl)cc2)C(Cl)Cl)cc1 [p,p'-DDD] |  |  |  |  |  | 59 | Inactive | Inactive |  | 0.12 | 6.46 | IC50 (human CYP2C9 [10]; [15]): 5.55 µM; CYP2C19 Efficacy (in parenthesis) (human CYP2C19 [7]): 0.12 ± 0.06 (-136 ± 7) %; CYP2C9 Efficacy (in parenthesis) (human CYP2C9 [4]): 5.55 ± 0.76 (-100 ± 3) %; CYP2D6 Efficacy (in parenthesis) (human CYP2D6 [8]): 59 ± 16.44 (-79 ± 23) %; CYP1A2 Efficacy (in parenthesis) (human CYP1A2 [9]): 6.46 ± 0.74 (-96 ± 1) %

From publication PMC12155096 (International Journal of Molecular Sciences, 2025)
